Measurements from ChEMBL document CHEMBL3286254, “Structure-guided discovery of 1,3,5 tri-substituted benzenes as potent and selective matriptase inhibitors exhibiting in vivo antitumor efficacy” (Bioorg Med Chem, 2014).
In brackets after ≈: the same amount, converted by molar mass.

Key:
DU-145 [1] = assay: Antiinvasion activity in human DU145 cells assessed as inhibition of FBS-induced cell invaded to lower surface at 10 uM for 3 days by matrigel assay; assay type: functional; conditions: DU-145, 72 h
[2] = Antiinvasion activity in human LNCaP-C42B4 cells assessed as inhibition of FBS-induced cell invaded to lower surface at 10 uM for 3 days by matrigel assay; assay type: functional; conditions: LNCaP-C42B4, 72 h
PC-3 [3] = assay: Antiinvasion activity in human PC3 cells assessed as inhibition of FBS-induced cell invaded to lower surface at 10 uM for 3 days by matrigel assay; assay type: functional; conditions: PC-3, 72 h
[4] = target: T1, Suppressor of tumorigenicity 14 protein (Homo sapiens, UniProt Q9Y5Y6); assay: Inhibition of recombinant matriptase (unknown origin) using Boc-Gln-Ala-Arg-7-amido-4-methyl coumarin hydrobromide
T1 sequence (Q9Y5Y6 whole entry): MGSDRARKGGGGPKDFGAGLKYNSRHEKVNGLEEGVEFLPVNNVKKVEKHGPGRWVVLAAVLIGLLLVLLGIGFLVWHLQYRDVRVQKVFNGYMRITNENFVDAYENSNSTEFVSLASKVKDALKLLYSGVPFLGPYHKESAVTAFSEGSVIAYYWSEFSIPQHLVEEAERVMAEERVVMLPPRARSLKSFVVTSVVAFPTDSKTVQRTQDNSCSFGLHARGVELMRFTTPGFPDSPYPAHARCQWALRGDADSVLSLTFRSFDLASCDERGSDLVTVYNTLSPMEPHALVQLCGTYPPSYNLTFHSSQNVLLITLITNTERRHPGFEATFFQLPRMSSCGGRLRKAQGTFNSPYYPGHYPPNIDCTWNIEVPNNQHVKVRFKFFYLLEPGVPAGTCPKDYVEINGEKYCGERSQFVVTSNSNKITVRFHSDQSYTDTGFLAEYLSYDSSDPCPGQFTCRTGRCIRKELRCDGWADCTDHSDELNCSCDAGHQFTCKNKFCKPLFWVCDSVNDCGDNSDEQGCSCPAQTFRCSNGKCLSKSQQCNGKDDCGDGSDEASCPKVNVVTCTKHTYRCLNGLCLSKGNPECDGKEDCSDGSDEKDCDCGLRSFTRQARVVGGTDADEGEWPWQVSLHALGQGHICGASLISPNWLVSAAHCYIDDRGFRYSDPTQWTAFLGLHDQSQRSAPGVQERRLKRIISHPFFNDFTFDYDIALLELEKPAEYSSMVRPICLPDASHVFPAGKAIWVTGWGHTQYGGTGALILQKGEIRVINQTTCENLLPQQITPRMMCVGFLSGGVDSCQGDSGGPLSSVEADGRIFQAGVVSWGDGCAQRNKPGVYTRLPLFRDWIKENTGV

Coagulation factor X = Coagulation factor X (Bos taurus, UniProt P00743); assay: Inhibition of bovine plasma factor 10a using CH3OCO-D-CHA-Gly-Arg-pNA.AcoH substrate
Coagulation factor X, sequence (P00743 41-180 limits assumed): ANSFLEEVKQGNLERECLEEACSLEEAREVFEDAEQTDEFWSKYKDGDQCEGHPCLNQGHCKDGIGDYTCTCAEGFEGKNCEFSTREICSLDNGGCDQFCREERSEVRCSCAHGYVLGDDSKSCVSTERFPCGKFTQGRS
Coagulation factor X, sequence (P00743 234-492 limits assumed): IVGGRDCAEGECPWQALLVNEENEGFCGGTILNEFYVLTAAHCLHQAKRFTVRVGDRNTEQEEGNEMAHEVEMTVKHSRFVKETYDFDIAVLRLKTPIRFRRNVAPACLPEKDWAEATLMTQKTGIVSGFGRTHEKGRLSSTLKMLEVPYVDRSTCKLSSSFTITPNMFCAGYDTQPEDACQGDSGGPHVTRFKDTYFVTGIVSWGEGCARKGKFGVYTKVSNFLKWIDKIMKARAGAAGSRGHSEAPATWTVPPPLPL

Prothrombin = Prothrombin (Homo sapiens, UniProt P00734); assay: Inhibition of human thrombin using Boc-Gln-Ala-Arg-7-amido-4-methyl coumarin hydrobromide
Trypsin = Trypsin (Homo sapiens, UniProt P07477+P07478+P35030); assay: Inhibition of human pancreas Trypsin using Boc-Gln-Ala-Arg-7-amido-4-methyl coumarin hydrobromide; assay type: protein assay
DU-145 [5] = assay: Cytotoxicity against human DU145 cells assessed as cell survival at 10 uM after 72 hrs by calcein AM assay; assay type: functional; conditions: DU-145, 72 h, read-out: Activity
[6] = Cytotoxicity against human LNCaP-C42B4 cells assessed as cell survival at 10 uM after 72 hrs by calcein AM assay; assay type: functional; conditions: LNCaP-C42B4, 72 h, read-out: Activity
PC-3 [7] = assay: Cytotoxicity against human PC3 cells assessed as cell survival at 10 uM after 72 hrs by calcein AM assay; assay type: functional; conditions: PC-3, 72 h, read-out: Activity
Plasminogen = Plasminogen (Homo sapiens, UniProt P00747); assay: Inhibition of human plasmin using pyroGlu-Phe-Lys-pNA.HCl
Plasminogen, sequence (P00747 97-580 limits assumed): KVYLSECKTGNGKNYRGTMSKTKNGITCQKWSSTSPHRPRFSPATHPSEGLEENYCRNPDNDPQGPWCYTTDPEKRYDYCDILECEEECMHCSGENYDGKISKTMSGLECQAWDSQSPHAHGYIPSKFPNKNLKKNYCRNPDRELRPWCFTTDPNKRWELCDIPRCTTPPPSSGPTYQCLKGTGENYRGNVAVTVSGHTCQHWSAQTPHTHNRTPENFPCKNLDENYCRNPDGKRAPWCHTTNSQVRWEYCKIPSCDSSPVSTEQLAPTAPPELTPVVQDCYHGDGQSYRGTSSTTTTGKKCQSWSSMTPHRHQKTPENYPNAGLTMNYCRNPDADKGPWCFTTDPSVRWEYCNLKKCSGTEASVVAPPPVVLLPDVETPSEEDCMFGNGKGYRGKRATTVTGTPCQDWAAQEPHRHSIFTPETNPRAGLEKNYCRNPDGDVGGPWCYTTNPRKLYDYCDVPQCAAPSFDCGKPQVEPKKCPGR
Plasminogen, sequence (P00747 581-810 limits assumed): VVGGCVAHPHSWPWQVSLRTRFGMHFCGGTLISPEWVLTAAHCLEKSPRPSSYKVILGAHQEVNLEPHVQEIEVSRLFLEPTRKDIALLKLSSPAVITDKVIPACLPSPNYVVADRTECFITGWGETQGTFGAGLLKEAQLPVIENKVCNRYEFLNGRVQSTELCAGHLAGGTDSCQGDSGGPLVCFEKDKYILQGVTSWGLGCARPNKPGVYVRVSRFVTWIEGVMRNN

DU-145 [8] = assay: Cytotoxicity against human DU145 cells assessed as inhibition of number of colonies formed in soft agar measured on day 8; assay type: functional, cell-based; conditions: DU-145, 192 h
[9] = Cytotoxicity against human LNCaP-C42B4 cells assessed as inhibition of number of colonies formed in soft agar measured on day 8; assay type: functional, cell-based; conditions: LNCaP-C42B4, 192 h
PC-3 [10] = assay: Cytotoxicity against human PC3 cells assessed as inhibition of number of colonies formed in soft agar measured on day 8; assay type: functional, cell-based; conditions: PC-3, 192 h
[11] = Metabolic stability in mouse liver microsomes assessed as compound remaining after 20 mins; assay type: ADME; conditions: read-out: Stability
[12] = Metabolic stability in rat liver microsomes assessed as compound remaining after 20 mins; assay type: ADME; conditions: read-out: Stability
[13] = Metabolic stability in human liver microsomes assessed as compound remaining after 20 mins; assay type: ADME; conditions: read-out: Stability
[14] = Aqueous solubility of the compound; assay type: physicochemical; conditions: buffer
Cytochrome P450 3A4 = Cytochrome P450 3A4 (Homo sapiens, UniProt P08684); assay: Inhibition of CYP3A4 (unknown origin); assay type: ADME
Cytochrome P450 3A4, sequence (P08684 whole entry): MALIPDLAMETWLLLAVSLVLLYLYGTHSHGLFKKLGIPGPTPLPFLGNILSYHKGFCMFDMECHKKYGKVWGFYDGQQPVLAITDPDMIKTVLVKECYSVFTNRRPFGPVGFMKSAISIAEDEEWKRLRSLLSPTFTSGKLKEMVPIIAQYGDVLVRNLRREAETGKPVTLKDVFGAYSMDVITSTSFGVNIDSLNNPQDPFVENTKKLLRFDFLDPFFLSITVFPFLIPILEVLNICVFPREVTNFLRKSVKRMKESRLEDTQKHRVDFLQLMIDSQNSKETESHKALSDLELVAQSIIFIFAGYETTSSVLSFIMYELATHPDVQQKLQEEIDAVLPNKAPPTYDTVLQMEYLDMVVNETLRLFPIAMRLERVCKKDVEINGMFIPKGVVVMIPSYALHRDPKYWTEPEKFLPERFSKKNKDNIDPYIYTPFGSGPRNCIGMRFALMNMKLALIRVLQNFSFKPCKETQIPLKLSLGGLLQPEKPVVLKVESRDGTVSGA

Cytochrome P450 2D6 = Cytochrome P450 2D6 (Homo sapiens, UniProt P10635); assay: Inhibition of CYP2D6 (unknown origin); assay type: ADME
Cytochrome P450 2D6, sequence (P10635 whole entry): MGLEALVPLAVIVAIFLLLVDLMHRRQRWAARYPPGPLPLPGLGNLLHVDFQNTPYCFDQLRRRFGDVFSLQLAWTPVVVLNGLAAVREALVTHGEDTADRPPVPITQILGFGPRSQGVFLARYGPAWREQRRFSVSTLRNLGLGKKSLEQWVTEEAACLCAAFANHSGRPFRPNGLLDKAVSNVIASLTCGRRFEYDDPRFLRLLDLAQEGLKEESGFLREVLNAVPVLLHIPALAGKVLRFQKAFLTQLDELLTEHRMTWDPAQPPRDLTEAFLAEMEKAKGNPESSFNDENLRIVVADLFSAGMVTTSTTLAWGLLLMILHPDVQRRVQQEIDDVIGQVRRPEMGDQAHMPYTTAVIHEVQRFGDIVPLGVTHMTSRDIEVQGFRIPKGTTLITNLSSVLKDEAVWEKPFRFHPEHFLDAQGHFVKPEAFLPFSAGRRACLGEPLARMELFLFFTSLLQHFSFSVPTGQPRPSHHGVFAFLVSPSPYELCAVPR

Cytochrome P450 2C9 = Cytochrome P450 2C9 (Homo sapiens, UniProt P11712); assay: Inhibition of CYP2C9 (unknown origin); assay type: ADME
Cytochrome P450 2C9, sequence (P11712 whole entry): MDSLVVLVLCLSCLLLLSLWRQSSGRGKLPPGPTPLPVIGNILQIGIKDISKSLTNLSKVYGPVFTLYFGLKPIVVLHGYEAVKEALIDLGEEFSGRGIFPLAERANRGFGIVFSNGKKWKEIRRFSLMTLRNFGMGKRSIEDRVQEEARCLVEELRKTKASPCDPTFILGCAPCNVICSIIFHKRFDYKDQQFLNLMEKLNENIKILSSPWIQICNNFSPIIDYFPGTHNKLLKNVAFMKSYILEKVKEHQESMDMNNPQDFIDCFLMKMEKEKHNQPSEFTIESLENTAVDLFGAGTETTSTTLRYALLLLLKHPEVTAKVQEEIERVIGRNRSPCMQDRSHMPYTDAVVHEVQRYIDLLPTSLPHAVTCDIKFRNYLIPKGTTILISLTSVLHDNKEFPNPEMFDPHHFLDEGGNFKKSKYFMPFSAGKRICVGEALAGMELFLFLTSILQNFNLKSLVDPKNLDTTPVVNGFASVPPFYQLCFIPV

Cytochrome P450 2C19 = Cytochrome P450 2C19 (Homo sapiens, UniProt P33261); assay: Inhibition of CYP2C19 (unknown origin); assay type: ADME
Cytochrome P450 2C19, sequence (P33261 whole entry): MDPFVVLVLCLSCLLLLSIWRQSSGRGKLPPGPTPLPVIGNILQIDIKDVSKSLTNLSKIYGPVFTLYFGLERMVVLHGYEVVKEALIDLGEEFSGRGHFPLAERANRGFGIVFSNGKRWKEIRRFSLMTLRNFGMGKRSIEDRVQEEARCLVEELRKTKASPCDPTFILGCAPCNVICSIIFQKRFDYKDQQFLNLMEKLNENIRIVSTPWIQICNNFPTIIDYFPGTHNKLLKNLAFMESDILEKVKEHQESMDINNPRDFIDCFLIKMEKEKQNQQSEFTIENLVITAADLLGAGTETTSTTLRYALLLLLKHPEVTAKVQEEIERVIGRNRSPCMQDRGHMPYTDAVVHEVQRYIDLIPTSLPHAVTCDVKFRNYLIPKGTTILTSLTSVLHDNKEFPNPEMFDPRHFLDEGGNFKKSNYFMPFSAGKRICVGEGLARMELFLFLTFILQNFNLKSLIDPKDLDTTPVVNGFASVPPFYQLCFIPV

[15] = Tmax in NMRI mouse at 1 mg/kg, sc; conditions: in vivo
[16] = Cmax in NMRI mouse at 1 mg/kg, sc; conditions: in vivo
[17] = Terminal half life in NMRI mouse at 1 mg/kg, sc; conditions: in vivo, read-out: beta t1/2 (converted)
[18] = AUC (0 to infinity) in NMRI mouse at 1 mg/kg, sc; conditions: plasma
Mus musculus [19] = assay: Toxicity in SCID mouse xenografted with human DU145 cells assessed as clinical signs at 1 mg/kg, sc administered twice daily for 31 days; conditions: in vivo, 744 h
Mus musculus [20] = assay: Toxicity in SCID mouse xenografted with human DU145 cells assessed as body weight change at 1 mg/kg, sc administered twice daily for 31 days; conditions: in vivo, 744 h

| Ki [4] [µM] | Ki (Coagulation factor X) [µM] | Ki (Prothrombin) [µM] | Ki (Trypsin) [µM] | Ki (Plasminogen) [µM] | Structure (SMILES) | inhibition at 10 µM (DU-145 [1]) [%] | inhibition at 10 µM [2] [%] | inhibition at 10 µM (PC-3 [3]) [%] | viability at 10 µM (DU-145 [5]) [%] | viability at 10 µM [6] [%] | viability at 10 µM (PC-3 [7]) [%] | further results |
| --- | --- | --- | --- | --- | --- | --- | --- | --- | --- | --- | --- | --- |
| 0.26 | 2.09 | 3.97 | 2.064 | – | N=C(N)c1ccc(Oc2cc(OCc3ccc(Br)cc3)cc(C(=O)N[C@H]3CC[C@H](N)CC3)c2)cc1 | 61 | 76 | 51 | 78 | 65 | 93 | – |
| 0.545 | 0.743 | 2.34 | 0.516 | 1.2 | CC1CCC(C(=O)Nc2cc(Oc3ccc(C(=N)N)cc3)cc(Oc3ccc(C(=N)N)cc3)c2)CC1 (centres undefined) | – | – | – | – | – | – | – |
| 0.77 | 0.282 | 0.744 | 0.253 | 3.61 | CC1CCC(NC(=O)c2cc(Oc3ccc(C(=N)N)cc3)cc(Oc3ccc(C(=N)N)cc3)c2)CC1 (centres undefined) | – | – | – | – | – | – | – |
| 0.411 | 0.073 | 2.41 | 0.571 | 2.16 | N=C(N)c1ccc(Oc2cc(Oc3ccc(C(=N)N)cc3)cc(C(=O)NCC3CCCCC3)c2)cc1 | – | – | – | – | – | – | – |
| 0.061 | 0.095 | 2.68 | 0.541 | 2.59 | N=C(N)c1ccc(Oc2cc(NC(=O)C3CCN(C(=O)CCN)CC3)cc(Oc3ccc(C(=N)N)cc3)c2)cc1 | 94 | 60 | 37 | 98 | 99 | 80 | EC50 (DU-145 [8]): 0.13 µM; EC50 [9]: 1.58 µM; EC50 (PC-3 [10]): 0.58 µM |
| 0.094 | 1.29 | 4.06 | 0.545 | – | N=C(N)c1ccc(Oc2cc(Oc3ccc(C(=N)N)cc3)cc(C(=O)N3CCC(CCN)CC3)c2)cc1 | 62 | 61 | 54 | 100 | 100 | 93 | – |
| 0.305 | 0.336 | 0.501 | 0.232 | 1.53 | N=C(N)c1ccc(Oc2cc(Oc3ccc(C(=N)N)cc3)cc(C(=O)N3CCC4CCCCC4C3)c2)cc1 (centres undefined) | 45 | 15 | 47 | 78 | 79 | 87 | – |
| 0.73 | 0.273 | 1.56 | 0.225 | 3.85 | N=C(N)c1ccc(Oc2cc(Oc3ccc(C(=N)N)cc3)cc(C(=O)N3CCc4ccccc4C3)c2)cc1 | – | – | – | – | – | – | – |
| 0.018 | 0.062 | 2.53 | 1.338 | 2.41 | N=C(N)c1ccc(Oc2cc(NC(=O)C3CCN(CCN)CC3)cc(Oc3ccc(C(=N)N)cc3)c2)cc1 | – | – | – | – | – | – | – |
| 0.591 | 1.88 | 2.1 | 1.636 | 2.67 | N=C(N)c1ccc(Oc2cc(Oc3ccc(C(=N)N)cc3)cc(C(=O)Nc3ccc(F)cc3)c2)cc1 | – | – | – | – | – | – | – |
| 0.001 | 0.044 | 2.47 | 0.264 | – | N=C(N)c1ccc(Oc2cc(Oc3ccc(C(=N)N)cc3)cc(C(=O)O[C@H]3CC[C@H](N)CC3)c2)cc1 | 89 | 90 | 95 | 92 | 95 | 82 | EC50 (DU-145 [8]): 0.152 µM; EC50 [9]: 0.135 µM; EC50 (PC-3 [10]): 0.081 µM; remaining at 20 min [11]: 24%; remaining at 20 min [12]: 34%; remaining at 20 min [13]: 54%; solubility [14]: 182 µM (≈ 88.7 µg/mL); IC50 (Cytochrome P450 3A4): > 30 µM; IC50 (Cytochrome P450 2D6): > 30 µM; IC50 (Cytochrome P450 2C9): > 30 µM; IC50 (Cytochrome P450 2C19): > 30 µM |
| 0.04 | – | 3.13 | 1.541 | – | N=C(N)c1ccc(Oc2cc(Oc3ccc(CN)cc3)cc(C(=O)N[C@H]3CC[C@H](N)CC3)c2)cc1 | 49 | 59 | 54 | 90 | 100 | 63 | EC50 (DU-145 [8]): 0.324 µM; EC50 [9]: 1.7 µM; EC50 (PC-3 [10]): 0.485 µM |
| 1.85 | 1.03 | – | 0.471 | 2.63 | CCOC(=O)N1CCC(NC(=O)c2cc(Oc3ccc(C(=N)N)cc3)cc(Oc3ccc(C(=N)N)cc3)c2)CC1 | – | – | – | – | – | – | – |
| 0.592 | 0.19 | 1.64 | 0.179 | 2.39 | N=C(N)c1ccc(Oc2cc(Oc3ccc(C(=N)N)cc3)cc(C(=O)NC3CCCCC3)c2)cc1 | – | – | – | – | – | – | – |
| 0.01 | 0.516 | 2.1 | 1.625 | – | N=C(N)c1ccc(Oc2cc(Oc3ccc(C(=N)N)cc3)cc(C(=O)N[C@H]3CC[C@H](N)CC3)c2)cc1 | 81 | 84 | 97 | 100 | 95 | 96 | EC50 (DU-145 [8]): 0.2 µM; EC50 [9]: 1.36 µM; EC50 (PC-3 [10]): 0.048 µM; remaining at 20 min [11]: 81%; remaining at 20 min [12]: 100%; remaining at 20 min [13]: 85%; solubility [14]: 194 µM (≈ 94.4 µg/mL); IC50 (Cytochrome P450 3A4): > 30 µM; IC50 (Cytochrome P450 2D6): > 30 µM; IC50 (Cytochrome P450 2C9): > 30 µM; IC50 (Cytochrome P450 2C19): > 30 µM; Tmax [15]: 16.2 min; Cmax [16]: 487 ng/mL; half-life [17]: 96 min; AUC(0-inf) [18]: 1000 ng·h/mL; Activity (Mus musculus [19]): Non-toxic; Activity (Mus musculus [20]): < 5% |
